Patent publication EP3290412A1, “HIV-1 NUCLEOCAPSID INHIBITORS” (Università degli Studi di Siena, priority 2016, dated 2018)

Columns and labels:
NC(11-55) = NC(11-55) (Human immunodeficiency virus type 1, UniProt P12493); test: NC inhibition assay (NC-induced cTAR DNA destabilization, fluorescence); type: biochemical, HIV-1; conditions: for IC50: cTAR DNA 0.1 µM, 1 µM NC(11-55), 20 °C, pH 7.5, read-out: NC inhibition IC50; for inhibition at 100 µM: single point screening, positive = >25% inhibition at 100µM
Description: The NC inhibition assay is based on the nucleic acid chaperone activity of the NC protein. NC destabilizes the secondary structure of cTAR DNA, the complementary sequence of the transactivation response element, which is involved in minus-strand DNA transfer during reverse transcription. In the assay, the cTAR sequence from the HIV-1 Mal strain (Bernacchi et al, J Mol Biol, 2002) is labeled with a dye (Alexa488 fluorophore) and a quencher 4-(4'-dimethylaminophenylazo)benzoic acid (Dabcyl) at its 5' and 3' ends, respectively. In the absence of destabilization, the close proximity of both cTAR ends results in a strong fluorescence quenching of the dye emission by the Dabcyl group. NC(11-55) added to cTAR at a ratio of 10 NC/cTAR melts the bottom of the cTAR stem, which increases the distance between the dye and the quencher and as a result increases the dye fluorescence signal [Shvadchak et al, (2009) Identification by high throughput screening of small compounds inhibiting the nucleic acid destabilization activity of the HIV-1 nucleocapsid protein. Biochimie, 916-923]. NCIs are expected to prevent the NC-induced destabilization of cTAR and thus reverse the NC-induced increase in the fluorescence of the labeled cTAR. The activity of the inhibitor is thus evaluated from the ratio of the fluorescence intensity observed in the presence of NC with the molecule to the one in the absence of the compound.
The doubly labelled cTAR DNA oligonucleotides (55nt) were synthesised and purified by IBA GmbH Nucleic Acids Product Supply (Göttingen, Germany). Extinction coefficient at 260 nm of 5.73 x 10^5 M^-1 cm^-1 was used to determine the concentration of cTAR.
The NC(11-55) peptide (Avilov et al, Antimicrob Agents Chemother, 2012) was synthesized by solid-phase peptide synthesis on a 433A synthesizer (ABI, Foster City, CA) as previously described [De Rocquigny H, (1991) First large scale chemical synthesis of the 72 amino acid HIV-1 nucleocapsid protein NCp7 in an active form. Biochem Biophys Res Commun., 1010-1018]. The peptide was stored lyophilized and was resuspended in water before use. The concentration of peptide was determined by using an extinction coefficient of 5.7 x 10^3 M^-1 cm^-1 at 280 nm. Next, 2.5 molar equivalents of ZnSO4 were added and pH was raised to its final value by adding buffer.
All experiments were performed at 20 °C in 25 mM Tris-HCl (pH 7.5), 30 mM NaCl, and 0.2 mM MgCl2. To evaluate the inhibition activity of compounds on NC-induced cTAR destabilization, cTAR DNA (0.1 µM) was preincubated with 1 µM NC(11-55) (molar ratio NC:cTAR = 10:1) for 15 min at room temperature before addition of compound. For single point screening, all compounds were tested at three final concentrations: 1 µM, 10 µM and 100 µM. For the IC50 determination, inhibition of NC-induced cTAR melting was monitored through addition of increasing concentrations of the selected molecules to the pre-formed NC(11-55)-cTAR complex. After the addition of compound, the mixture was incubated for 15 min at room temperature before the reading. The fluorescence signal was recorded with a plate reader Xenius (SAFAS Monaco) or Fluoromax 3 spectrofluorometer (Horiba Jobin-Yvon), and the excitation and emission wavelengths were 480 and 520 nm, respectively. The spectra were corrected for dilution, buffer fluorescence and screening effect (when it was required). In order to check the occurrence of aggregation, we performed additional reading of absorption with the plate reader Xenius (SAFAS Monaco) or Cary 4000 spectrophotometer (Agilent). […]

[1] = biological target: T1, full length (1-55) HIV-1 NCp7 (Human immunodeficiency virus type 1 group M subtype B, UniProt P12493); test: Electromobility Shift Assay (EMSA), competition for ssDNA binding; conditions: NCp7 300 nM, M13mp18 ssDNA; positive = >25% inhibition at 100µM
T1 construct: recombinant full length (1-55) HIV-1 NCp7 proteins; made in house
Description: The assay used a recombinant full length (1-55) HIV-1 NCp7 proteins based on the NL4-3 sequence (GenBank accession number AF324493). The protein was expressed and purified as described in [Carteau, S., Gorelick, R. J. & Bushman, F. D. Coupled integration of human immunodeficiency virus type 1 cDNA ends by purified integrase in vitro: stimulation by the viral nucleocapsid protein. Journal of virology 73, 6670-6679 (1999)].
Competition for single-stranded (ss) DNA binding was realized by mixing 1 µL of serial dilutions of NC inhibitors (diluted in DMSO) with 44 µL of NCp7 (300 nM) in a reaction buffer (20 mM Tris-HCl pH 7.4, 2 mM MgCl2, 100 mM NaCl, 1 mM DTT). 5 µL of a 10 ng/µL (4 nM) solution of M13mp18 ssDNA (BayouBiolabs) were then added and the tubes were incubated for 25 minutes at 37 °C. The reaction was terminated by chilling the tubes on ice followed by the addition of 5 µL of a loading buffer (30% glycerol, 0.01% xylene cyanol, 10 mM Tris-HCl pH 7.4). Samples were then resolved on 25 cm-long, 1% (w/v) agarose gels (SeaKem LE Agarose, Lonza) in 0.5x TBE. Gels were run in a Sub-Cell GT cuvette (BioRad) for 18 h at room temperature at 3 V/cm, stained with SybrGold (Molecular Probes) and scanned for fluorescence using a Typhoon 8600 (GE Healthcare). The experiments were performed in triplicate. Competition efficiency was realized by measuring the relative distance in pixels between the unbound ssDNA control, the NCp7-bound ssDNA control and the bound ssDNA for each points of the titration with the ImageQuant software. The IC50 was estimated as the NC inhibitors concentrations for which the bound ssDNA migrated at 50% of the distance separating the bound from the unbound ssDNA.

[2] = system: HIV-1 reference strain NL4-3; test: BiCycle assay (MT-2 then TZM-bl cells); type: cell-based; conditions: Human immunodeficiency virus 1, NL43, TZM-bl, read-out: BiCycle IC50 nM
Experimental: BiCycle Assay is cell based assay allowing the evaluation of the antiviral activity of HIV-1 inhibitors on the whole replication cycle of HIV-1. The assay consists in a first round of infection of the T-cell line MT-2 followed by infection of TZM-bl cells. MT-2 cells were seeded at a concentration of 50,000 cells/well in a 96-well plate and infected with the HIV-1 reference strain NL4-3 in presence of five-fold dilutions of the investigational compounds. After 72 hours, 50 µl of supernatant from each well, containing the virus produced in the first round of infection, were used to infect TZM-bl cells seeded in a 96-plate well at a concentration of 30,000 cells/well. Two days later, cells were lysed adding 40 µl of Glo Lysis Buffer (Promega) to each well for 5 minutes, then 40 µl of Brighy-Glo Luciferase Reagent (Promega) were added to each well for relative luminescence units (RLU) counting using Glo-Max Multi Detection System (Promega). RLU values from each well were elaborated using the GraphPad v5.0 software to calculate the IC50 of each compound.

## C[C@@H](NC(=O)c1nc(-c2cc([N+](=O)[O-])ccn2)nc(O)c1O)C1CCCCC1 [Compound 40, (R)-N-(1-cyclohexylethyl)-5,6-dihydroxy-2-(4-nitropyridin-2-yl)pyrimidine-4-carboxamide]
NC(11-55)
  IC50: 6.35 µM
  inhibition at 100 µM: > 25%
[1]
  EMSA screening results: Positive (A compound showing >25% inhibition when tested at 100µM concentration is considered as "positive")

## C[C@@H](NC(=O)c1nc(-c2ncccc2NC(=O)OC(C)(C)C)nc(O)c1O)C1CCCCC1 [Compound 42, tert-butyl (R)-(2-(4-((1-cyclohexylethyl)carbamoyl)-5,6-dihydroxypyrimidin-2-yl)pyridin-3-yl)carbamate]
NC(11-55)
  IC50: 14.5 µM
  inhibition at 100 µM: > 25%
[1]
  EMSA screening results: Positive (A compound showing >25% inhibition when tested at 100µM concentration is considered as "positive")
[2]
  IC50: 1600 nM

## O=C(NC1(C2CCCCC2)CC1)c1nc(-c2cc3ccccc3cn2)nc(O)c1O [Compound 83, N-(1-cyclohexylcyclopropyl)-5,6-dihydroxy-2-(isoquinolin-3-yl)pyrimidine-4-carboxamide]
NC(11-55)
  inhibition at 100 µM: > 25%
[1]
  EMSA screening results: Positive (A compound showing >25% inhibition when tested at 100µM concentration is considered as "positive")

## CCNCc1ccnc(-c2nc(O)c(O)c(C(=O)N[C@H](C)C3CCCCC3)n2)c1 [Compound 95, (R)-N-(1-cyclohexylethyl)-2-(4-((ethylamino)methyl)pyridin-2-yl)-5,6-dihydroxypyrimidine-4-carboxamide]
NC(11-55)
  IC50: 28 µM
  inhibition at 100 µM: > 25%
[1]
  EMSA screening results: Negative

## C[C@@H](NC(=O)c1nc(-c2cc(CNCc3ccccc3)ccn2)nc(O)c1O)C1CCCCC1 [Compound 96, (R)-2-(4-((benzylamino)methyl)pyridin-2-yl)-N (1-cyclohexylethyl)-5,6-dihydroxypyrimidine-4-carboxamide]
NC(11-55)
  inhibition at 100 µM: > 25%
[1]
  EMSA screening results: Negative
